# Assay results from US20110034335A1, “Treatment of Ornamental Plants” (priority 2009, published 2011).
# How the values were obtained:
# Format in all cases: in vivo
# [1] = system: Regal Geranium ‘Jewel’; test: Spray with 1-MCP solutions with or without surfactant, ethylene challenge (Example 4)
# Protocol: (§1) Spray applications were made using (unless otherwise noted) AFxRD-038 powder containing 3.8% active ingredient, i.e. 1-MCP, and also containing dextrose, alpha-cyclodextrin, and amino acid salt. Rates listed are for active ingredient e.g. 5 mg active ingredient per liter. Sprayed liquid contained (unless otherwise noted) AFxRD-038 powder added to water. AFxRD-038 powder was obtained from AgroFresh Inc. The water used (unless otherwise noted) was tap water. Applications were done in 500 ml spray bottles at rates typical for growth regulators applications in the ornamental industry i.e., 200 ml per square meter. Spraying was done within 5-15 minutes of mixing the formulation. Plants were allowed to dry for 1-4 hours before being challenged with ethylene (2 ppm for about 16 hours at ambient temperatures).
# (§2) Surfactant Silwet™ L-77 (called “surf” below) was sometimes included to evaluate the effect of surfactant on efficacy. Silwet™ L-77 was used in the form of a pure liquid. The amounts shown below as “ml/L” refer to milliliters of pure Silwet™ L-77 per liter of liquid CP composition.
# (§3) Flower loss (%) on Regal Geranium cultivars, ‘Camelot’ and ‘Jewel’ (in pots), sprayed with 1-MCP solutions with or without surfactant (Silwet™ L-77) and challenged with ethylene.
# [2] = system: Regal Geranium ‘Camelot’; test: as above
# Protocol: as §1, §2, §3
# [3] = system: New Guinea Impatiens; test: Shelf life after low-concentration spray (Example 9); details: EthylBloc powder in distilled water
# Source text: (§4) Spray liquid was EthylBloc™ powder (contains 0.14% by weight 1-MCP, plus alpha-cyclodextrin and dextrose, obtained from Floralife Inc.) in distilled water. The shelf lives of sprayed and non-sprayed control plants were observed, with the following results: […]
# [4] = system: Geranium; test: as above; details: EthylBloc powder in distilled water
# Source text: as §4
# [5] = system: Impatiens; test: as above; details: EthylBloc powder in distilled water
# Source text: as §4
# [6] = system: Cyclamen plants; test: Spray with 1-MCP solutions, ethylene challenge (Example 1); details: Day 7; for Appearance: 1 = poor, 5 = excellent
# Protocol: as §1
# (§5) Visual appearance and flower or bud abscission of Impatiens (unknown cultivar in pots with diameter of 10 cm (4 inch)) and Cyclamen plants (unknown cultivar in pots of diameter 11.5 cm (4.5 inch)) sprayed with 1-MCP solutions and challenged with ethylene.
# [7] = system: Impatiens; test: as above; details: 0 = poor, 5 = excellent
# Protocol: as §1, §5
# [8] = system: Campanula; test: Spray with 1-MCP solutions without surfactant, ethylene challenge (Example 3)
# Protocol: as §1
# Bud wilting and flower abscission (%) of Campanula (in pots) sprayed with 1-MCP solutions without a surfactant, and challenged with ethylene. We observed the percent of plants on which one or more buds or one or more flowers underwent wilting or abscission or both.
# [9] = system: nursery plants; test: Nursery plants, reassessment after 4 weeks in greenhouse (Example 10); details: 50 mg/L of 1-MCP; after 4 weeks in a greenhouse
# Protocol: A range of nursery plants that often show quality problems during shipping were chosen including Datura (tropical), Mini-rose, Delphinium (sun perennial), Verbena (sun perennial), Asclepias (sun perennial), Delosperma (groundcover), Myosotis (shade perennial) and Primula (shade perennial).
# Spray liquid had 50 mg/L of 1-MCP. Sprayed and unsprayed control plants, all of which were blooming, were packed in boxes according to standard procedures and shipped under commercial conditions. After 5 days plants were unpacked and given a quality rating, from 0 (poor) to 2 (good). Results were as follows:
# After the above observations, the plants were placed in a greenhouse for 4 weeks and assessed again.
# [10] = system: ‘Hark’ Phalaenopsis orchids; test: Spray with 1-MCP solutions with or without Silwet L-77, ethylene challenge (Example 7)
# Protocol: as §1, §2
# Percent of plants showing one or more of flower wilting, bud wilting, and drop on ‘Hark’ Phalaenopsis orchids (in pots) sprayed with 1-MCP solutions with or without Silwet™ L-77 surfactant and challenged with ethylene.
# [11] = 1-MCP 5 mg/L, surf. 0 ml/L, Day 1 (Day 1/Day 2 column pair)
# [12] = 1-MCP 5 mg/L, surf. 0 ml/L, Day 1 (Day 1/Day 7 column pair)
# [13] = 1-MCP 5 mg/L, surf. 0 ml/L, Day 2
# [14] = 1-MCP 5 mg/L, surf. 0 ml/L, Day 7
# [15] = 1-MCP 5 mg/L, surf. 2 ml/L, Day 1, phytotoxicity was observed
# [16] = 1-MCP 5 mg/L, surf. 2 ml/L, Day 2, phytotoxicity was observed
# [17] = 1-MCP 10 mg/L, surf. 0 ml/L, Day 1
# [18] = 1-MCP 10 mg/L, surf. 0 ml/L, Day 7
# [19] = 1-MCP 25 mg/L, surf. 0 ml/L, Day 1
# [20] = 1-MCP 25 mg/L, surf. 0 ml/L, Day 7
# [21] = 1-MCP 50 mg/L, surf. 0 ml/L, Day 1 (Day 1/Day 2 column pair), phytotoxicity was observed
# [22] = 1-MCP 50 mg/L, surf. 0 ml/L, Day 1 (Day 1/Day 7 column pair), phytotoxicity was observed
# [23] = 1-MCP 50 mg/L, surf. 0 ml/L, Day 2, phytotoxicity was observed
# [24] = 1-MCP 50 mg/L, surf. 0 ml/L, Day 7, phytotoxicity was observed
# [25] = 1-MCP 50 mg/L, surf. 2 ml/L, Day 1, phytotoxicity was observed
# [26] = 1-MCP 50 mg/L, surf. 2 ml/L, Day 2, phytotoxicity was observed
structure (smiles),measurement,setting,value
"CC1=CC1 [1-MCP, 1-methylcyclopropene]",Flower Loss (%),[1]; [11],84^ %
same,Flower Loss (%),[1]; [12],90%
same,Flower Loss (%),[1]; [13],100 ^ %
same,Flower Loss (%),[1]; [14],76%
same,Flower Loss (%),[1]; [15],65^(3) %
same,Flower Loss (%),[1]; [16],100^(3) %
same,Flower Loss (%),[1]; [17],85%
same,Flower Loss (%),[1]; [18],68%
same,Flower Loss (%),[1]; [19],52%
same,Flower Loss (%),[1]; [20],43%
same,Flower Loss (%),[1]; [21],28^(3) %
same,Flower Loss (%),[1]; [22],26^(3) %
same,Flower Loss (%),[1]; [23],82^(3) %
same,Flower Loss (%),[1]; [24],65^(3) %
same,Flower Loss (%),[1]; [25],35^(3) %
same,Flower Loss (%),[1]; [26],81^(3) %
same,Flower Loss (%),[2]; [11],45 ^ %
same,Flower Loss (%),[2]; [12],62%
same,Flower Loss (%),[2]; [13],64^ %
same,Flower Loss (%),[2]; [14],46%
same,Flower Loss (%),[2]; [15],5^(3) %
same,Flower Loss (%),[2]; [16],24^(3) %
same,Flower Loss (%),[2]; [17],20%
same,Flower Loss (%),[2]; [18],0%
same,Flower Loss (%),[2]; [19],28%
same,Flower Loss (%),[2]; [20],27%
same,Flower Loss (%),[2]; [21],0^(3) %
same,Flower Loss (%),[2]; [22],0^(3) %
same,Flower Loss (%),[2]; [23],0^(3) %
same,Flower Loss (%),[2]; [24],48^(3) %
same,Flower Loss (%),[2]; [25],5^(3) %
same,Flower Loss (%),[2]; [26],44^(3) %
same,Shelf Life,[3]; 1-MCP 0.03 mg/L,4 days
same,Shelf Life,[3]; 1-MCP 0.32 mg/L,7 days
same,Shelf Life,[4]; 1-MCP 0.03 mg/L,3 days
same,Shelf Life,[4]; 1-MCP 0.32 mg/L,4 days
same,Shelf Life,[5]; 1-MCP 0.03 mg/L,3 days
same,Shelf Life,[5]; 1-MCP 0.32 mg/L,5 days
same,Abscission (%),[6]; 1-MCP 10 mg/L,25.6%
same,Appearance,[6]; 1-MCP 10 mg/L,3.7
same,Abscission (%),[6]; 1-MCP 15 mg/L,23.3%
same,Appearance,[6]; 1-MCP 15 mg/L,3.7
same,Abscission (%),[6]; 1-MCP 25 mg/L,25.0%
same,Appearance,[6]; 1-MCP 25 mg/L,3.7
same,Appearance,"[7]; 1-MCP 10 mg/L, Day 1",3.7
same,Appearance,"[7]; 1-MCP 10 mg/L, Day 4",3.3
same,Appearance,"[7]; 1-MCP 100 mg/L, Day 1",4.3
same,Appearance,"[7]; 1-MCP 100 mg/L, Day 4",3.7
same,Appearance,"[7]; 1-MCP 300 mg/L, Day 1",2.3
same,Appearance,"[7]; 1-MCP 300 mg/L, Day 4",1.3
same,Bud Wilting and/or Flower Abscission (%),"[8]; 1-MCP 5 mg/L, Day 1",21%
same,Bud Wilting and/or Flower Abscission (%),"[8]; 1-MCP 5 mg/L, Day 7",25%
same,Bud Wilting and/or Flower Abscission (%),"[8]; 1-MCP 10 mg/L, Day 1",45%
same,Bud Wilting and/or Flower Abscission (%),"[8]; 1-MCP 10 mg/L, Day 7",52%
same,Bud Wilting and/or Flower Abscission (%),"[8]; 1-MCP 25 mg/L, Day 1",38%
same,Bud Wilting and/or Flower Abscission (%),"[8]; 1-MCP 25 mg/L, Day 7",59%
same,Bud Wilting and/or Flower Abscission (%),"[8]; 1-MCP 50 mg/L, Day 1",38%
same,Bud Wilting and/or Flower Abscission (%),"[8]; 1-MCP 50 mg/L, Day 7",57%
same,assessment of sprayed plants vs control,[9],"typically larger, greener, and healthier"
same,"flower wilt, bud wilt, and/or drop (%)","[10]; 1-MCP 5 mg/L, surf 0 ml/L, Day 0",0 a %
same,"flower wilt, bud wilt, and/or drop (%)","[10]; 1-MCP 5 mg/L, surf 0 ml/L, Day 5",1.8%
same,"flower wilt, bud wilt, and/or drop (%)","[10]; 1-MCP 5 mg/L, surf 0 ml/L, Day 10",1.8%
same,"flower wilt, bud wilt, and/or drop (%)","[10]; 1-MCP 5 mg/L, surf 0 ml/L, Day 15",1.8%
same,"flower wilt, bud wilt, and/or drop (%)","[10]; 1-MCP 10 mg/L, surf 0 ml/L, Day 0",0 a %
same,"flower wilt, bud wilt, and/or drop (%)","[10]; 1-MCP 10 mg/L, surf 0 ml/L, Day 5",2.9%
same,"flower wilt, bud wilt, and/or drop (%)","[10]; 1-MCP 10 mg/L, surf 0 ml/L, Day 10",2.9%
same,"flower wilt, bud wilt, and/or drop (%)","[10]; 1-MCP 10 mg/L, surf 0 ml/L, Day 15",2.9%
same,"flower wilt, bud wilt, and/or drop (%)","[10]; 1-MCP 25 mg/L, surf 0 ml/L, Day 0",0 a %
same,"flower wilt, bud wilt, and/or drop (%)","[10]; 1-MCP 25 mg/L, surf 0 ml/L, Day 5",0%
same,"flower wilt, bud wilt, and/or drop (%)","[10]; 1-MCP 25 mg/L, surf 0 ml/L, Day 10",0%
same,"flower wilt, bud wilt, and/or drop (%)","[10]; 1-MCP 25 mg/L, surf 0 ml/L, Day 15",0%
same,"flower wilt, bud wilt, and/or drop (%)","[10]; 1-MCP 50 mg/L, surf 0 ml/L, Day 0",0 a %
same,"flower wilt, bud wilt, and/or drop (%)","[10]; 1-MCP 50 mg/L, surf 0 ml/L, Day 5",1.8%
same,"flower wilt, bud wilt, and/or drop (%)","[10]; 1-MCP 50 mg/L, surf 0 ml/L, Day 10",1.8%
same,"flower wilt, bud wilt, and/or drop (%)","[10]; 1-MCP 50 mg/L, surf 0 ml/L, Day 15",1.8%
same,"flower wilt, bud wilt, and/or drop (%)","[10]; 1-MCP 50 mg/L, surf 0.25 ml/L, Day 0",0 a %
same,"flower wilt, bud wilt, and/or drop (%)","[10]; 1-MCP 50 mg/L, surf 0.25 ml/L, Day 5",0%
same,"flower wilt, bud wilt, and/or drop (%)","[10]; 1-MCP 50 mg/L, surf 0.25 ml/L, Day 10",0%
same,"flower wilt, bud wilt, and/or drop (%)","[10]; 1-MCP 50 mg/L, surf 0.25 ml/L, Day 15",0%
